For assay [1], the system named is Ras-CVLS processing in COS cells. In words: Cell-based COS cell assay: inhibition of Ras processing (Ras-CVLS). Further details: species or system monkey. The settings on record: Primates, COS, read-out: Inhibition of Ras Processing IC50, Table 3, COS cells. The source says:
Transient expression of val^12 -Ha-Ras-CVLS and […] -Ha-Ras-CVLL in COS monkey kidney cells: Effect of farnesyl protein transferase inhibitors on Ras processing and on disordered cell growth induced by transforming Ras.
COS monkey kidney cells were transfected by electroporation with the plasmid pSV-SPORT (Gibco/BRL) containing a cDNA insert encoding either Ras-CVLS or Ras-CVLL, leading to transient overexpression of a Ras substrate for either farnesyl protein transferase or geranylgeranyl protein transferase I, respectively (see above).
Following electroporation, cells were plated into 6-well tissue culture dishes containing 1.5 ml of Dulbecco's-modified Eagle's media (GIBCO, Inc.) supplemented with 10% fetal calf serum and the appropriate farnesyl protein transferase inhibitors. After 24 hours, media was removed and fresh media containing the appropriate drugs was re-added.
48 hours after electroporation cells were examined under the microscope to monitor disordered cell growth induced by transforming Ras. Cells expressing transforming Ras become more rounded and refractile and overgrow the monolayer, reminiscent of the transformed phenotype. Cells were then photographed, washed twice with 1 ml of cold phosphate-buffered saline (PBS) and removed from the dish by scraping with a rubber policeman into 1 ml of a buffer containing 25 mM Tris, pH 8.0; 1 mM ethylenediamine tetraacetic acid; 1 mM phenylmethylsulfonyl fluoride; […]; and 0.1 mM pepstatin. Cells were lysed by homogenization and cell debris was removed by centrifugation at 2000× g for 10 min.
Cellular protein was precipitated by addition of ice-cold trichloroacetic acid and redissolved in […] of SDS-electrophoresis sample buffer. […] Proteins resolved on the gels were electroblotted onto nitrocellulose membranes for immunodetection.
After washing, membranes were incubated for one hour at room temperature with a 1:5000 dilution of secondary antibody, rabbit anti-rat lgG conjugated to horseradish peroxidase, in PBS containing 1% fetal calf serum. The presence of processed and unprocessed Ras-CVLS or Ras-CVLL was detected using a colorimetric peroxidase reagent (4-chloro-1-naphthol) as described by the manufacturer (Bio-Rad).

Assay [2] deals with T24-BAG4 human bladder carcinoma cells expressing an activated H-ras gene. The assay is described as follows: Cell mat assay, T24-BAG4 tumor cells. The class given is cell-based. The settings on record: Homo sapiens, 336 h, read-out: Tumor (T-24) IC50. The method, then:
(§1) Compound-induced colony inhibition was assayed by addition of serial dilutions of compound directly to the growth medium 24 h after tumor cell planting, and incubating cells for an additional 14 d to allow colony formation. Assays were terminated by rinsing monolayers twice with phosphate-buffered saline (PBS), fixing the monolayers with a 1% glutaraldehyde solution in PBS, then visualizing tumor cells by staining with X-Gal (Price, J., et al., Lineage analysis in the vertebrate nervous system by retrovirus-mediated gene transfer, Proc. Natl. Acad. Sci.84, 156-160(1987)). […] Both IC50 values were obtained by determining the density of tumor cells and mat cells by visual inspection and enumeration of cells per colony and the number of colonies under the microscope.

Assay [3] has as its system DLD-1-BAG human colon carcinoma cells. The assay is described as follows: Cell mat assay, DLD-1-BAG tumor cells. The format is cell-based. The settings on record: Homo sapiens, DLD-1, 336 h, read-out: Tumor (DLD-1) IC50. The method, then: as §1
Additional assays were carried out by following essentially the same procedure as described above, but with substitution of alternative indicator tumor cell lines in place of the T24-BAG cells. The assays were conducted using either DLD-1-BAG human colon carcinoma cells expressing as activated K-ras gene or SW620-BAG human colon carcinoma cells expressing an activated K-ras gene.

Assay [4] concerns Normal human HEPM fibroblasts. The assay is described as follows: Cell mat assay, normal cells (cell mat). The class given is cell-based. The settings on record: Homo sapiens, Fibroblast, 336 h, read-out: Normal IC50. The method, then:
as §1

The test system of the next assay is AsPc-1. The assay is described as follows: Soft agar assay. The class given is cell-based. The settings on record: Homo sapiens, ASPC1; AsPc-1 (pancreatic) K ras mutation; read-out: IC50, inhibition of human tumor cell growth, soft agar. The method, then: (§2) Anchorage-independent growth is a characteristic of tumorigenic cell lines. Human tumor cells are suspended in growth medium containing 0.3% agarose and an indicated concentration of a farnesyl transferase inhibitor. The solution is overlayed onto growth medium solidified with 0.6% agarose containing the same concentration of farnesyl transferase inhibitor as the top layer. After the top layer is solidified, plates are incubated for 10-16 days at 37° C. under 5% CO2 to allow colony outgrowth. After incubation, the colonies are stained by overlaying the agar with a solution of MTT (3-[4,5-dimethylthiazol-2-yl]-2,5-diphenyltetrazolium bromide, Thiazolyl blue) (1 mg/mL in PBS). Colonies are counted and the IC50's determined.

A further assay has as its system BT474 (breast). The assay is described as follows: Soft agar assay. The settings on record: Homo sapiens, BT-474, read-out: IC50, inhibition of human tumor cell growth, soft agar. The format is cell-based. As for the experimental part: as §2
The next assay has as its system DLD 1. The assay is described as follows: Soft agar assay. The class given is cell-based. The following applies: Homo sapiens; DLD 1 (colon) K ras mutation; read-out: IC50, inhibition of human tumor cell growth, soft agar. As for the experimental part: as §2
For a further assay, the system named is DU 145. The assay is described as follows: Soft agar assay. The class given is cell-based. The following applies: Homo sapiens; DU 145 (prostate) ras mut. not detected; read-out: IC50, inhibition of human tumor cell growth, soft agar. The method, then:
as §2

The test system of the next assay is HBL100. The assay is described as follows: Soft agar assay. The format is cell-based. The following applies: Homo sapiens, HBL-100; HBL100 (breast) ras mut. not detected; read-out: IC50, inhibition of human tumor cell growth, soft agar. The method, then:
as §2

For another assay, the system named is HTB 119 (NCI H69). The assay is described as follows: Soft agar assay. The format is cell-based. The settings on record: Homo sapiens; HTB 119 (NCI H69) (SCLC); read-out: IC50, inhibition of human tumor cell growth, soft agar. As for the experimental part:
as §2

In the next assay the test system is HTB 173 (NCI H146). The assay is described as follows: Soft agar assay. The settings on record: Homo sapiens; HTB 173 (NCI H146) (SCLC) ras mut. not detected; read-out: IC50, inhibition of human tumor cell growth, soft agar. The format is cell-based. The method, then: as §2
In the next assay the test system is HTB 183 (NCI H661). The assay is described as follows: Soft agar assay. The format is cell-based. The following applies: Homo sapiens; HTB 183 (NCI H661) (NSCLC) ras mut. not detected; read-out: IC50, inhibition of human tumor cell growth, soft agar. As for the experimental part: as §2
The next assay deals with MCF-7. The assay is described as follows: Soft agar assay. The class given is cell-based. The following applies: Homo sapiens, MCF7; MCF-7 (breast) ras mut. not detected; read-out: IC50, inhibition of human tumor cell growth, soft agar. As for the experimental part: as §2
The subject of the next assay is MDA MB453 (breast). In words: Soft agar assay. The class given is cell-based. The settings on record: Homo sapiens, MDA-MB-453, read-out: IC50, inhibition of human tumor cell growth, soft agar. As for the experimental part:
as §2

Another assay concerns PC3 (prostate). In words: Soft agar assay. The class given is cell-based. The following applies: Homo sapiens, read-out: IC50, inhibition of human tumor cell growth, soft agar. The method, then:
as §2

From patent US5874442A, “Tricyclic amides useful for inhibition of G-protein function and for treatment of proliferative disease” (Schering-Plough Corporation, priority 1996, dated 1999) come the findings set out here.

On to `NC(=O)N1CCC(CC(=O)N2CCC([C@H]3c4ncc(Br)cc4CCc4cc(Cl)cc(Br)c43)CC2)CC1` [Example 10], for which the IC50 was < 25 nM in [1]; < 1600 nM in [2]; < 1600 nM in [3]; > 25000 nM in assay [4]; 3000 nM in the assay with AsPc-1; 1000 nM in the assay on BT474 (breast). Further, the IC50 with DLD 1 is 2500 nM; in the assay with DU 145 it was 600 nM; in the assay with HBL100, < 600 nM; in the assay on HTB 119 (NCI H69), 300 nM; with HTB 173 (NCI H146) it was 50 nM; in the assay on HTB 183 (NCI H661) it was 500 nM. Besides, the IC50 in the assay on MCF-7 was < 600 nM; in the assay with MDA MB453 (breast), 600 nM; in the assay with PC3 (prostate), 1250 nM.

A word on the IC50: it is the concentration that inhibits the measured activity by half.
